Structures are written as SMILES. Activity calls are given as the source filed them. The rule behind the calls is not given here.

The test system of assay [1] is Saccharomyces cerevisiae. Put plainly: DNA damaging activity against DNA repair-deficient RS 167N (rad6) yeast assessed as drug concentration required to produce 12 mm zone of inhibition up to 8000 ug/mL. The assay is classed as functional, organism-based.
In assay [2] the test system is Saccharomyces cerevisiae. Put plainly: DNA damaging activity against DNA repair-deficient RS 322YK (rad 52Y) yeast assessed as drug concentration required to produce 12 mm zone of inhibition up to 8000 ug/mL. The format is functional, organism-based.
The test system of assay [3] is Saccharomyces cerevisiae. Put plainly: DNA damaging activity against DNA repair-deficient RS 188N (RAD+) yeast assessed as drug concentration required to produce 12 mm zone of inhibition up to 8000 ug/mL. The format is functional, organism-based.
For assay [4], the system named is Saccharomyces cerevisiae. Put plainly: DNA damaging activity against DNA repair-deficient RS 321 yeast assessed as drug concentration required to produce 12 mm zone of inhibition up to 8000 ug/mL. The format is functional, organism-based.
The subject of assay [5] is Saccharomyces cerevisiae. Put plainly: DNA damaging activity against DNA repair-deficient RS 188N (RAD+) yeast assessed as drug concentration required to produce 12 mm zone of inhibition. The assay is classed as functional.
The test system of assay [6] is Saccharomyces cerevisiae. Put plainly: DNA damaging activity against DNA repair-deficient RS 322YK (rad 52Y) yeast assessed as drug concentration required to produce 12 mm zone of inhibition. The format is functional.
Assay [7] deals with Saccharomyces cerevisiae. Put plainly: DNA damaging activity against DNA repair-deficient RS 167N (rad6) yeast assessed as drug concentration required to produce 12 mm zone of inhibition. The format is functional.
Assay [8] has as its system Saccharomyces cerevisiae. Put plainly: DNA damaging activity against DNA repair-deficient RS 321 yeast assessed as drug concentration required to produce 12 mm zone of inhibition. The assay is classed as functional.

Take `CC(=O)N1C[C@H](C)CC[C@@]12O[C@H]1C[C@H]3[C@@H]4CC=C5C[C@@H](O)CC[C@]5(C)[C@H]4CC[C@]3(C)[C@H]1[C@@H]2C`: the outcome in assay [1], in assay [2], in assay [3] and in assay [4] was inactive.

Consider `CC(=O)O[C@H]1CC[C@@]2(C)C(=CC[C@H]3[C@@H]4C[C@@H]5O[C@@]6(CC[C@@H](C)CN6C(C)=O)[C@@H](C)[C@@H]5[C@@]4(C)CC[C@@H]32)C1`, for which the outcome in assay [1], in assay [2], in assay [3] and in assay [4] was inactive.

`CC[C@@]1(O)C(=O)OCc2c1cc1n(c2=O)Cc2cc3ccccc3nc2-1` [CAMPTOTHECIN]: the values for the IC12 in assay [5] and in assay [6] were 100 µg/mL and 0.9 µg/mL, respectively.

`C[C@@H]1CC[C@]2(NC1)O[C@H]1C[C@H]3[C@@H]4CC=C5C[C@@H](O[C@@H]6O[C@H](CO)[C@@H](O)[C@H](O)[C@H]6O)CC[C@]5(C)[C@H]4CC[C@]3(C)[C@H]1[C@@H]2C`: the outcome in assay [1], in assay [2], in assay [3] and in assay [4] was inactive.

As for `C[C@@H]1CC[C@]2(NC1)O[C@H]1C[C@H]3[C@@H]4CC=C5C[C@@H](O)CC[C@]5(C)[C@H]4CC[C@]3(C)[C@H]1[C@@H]2C` [SOLASODINE], the IC12 is above 6.1 µg/mL in assay [5], 5 µg/mL in assay [6], above 10 µg/mL in assay [7] and 1.9 µg/mL in assay [8].

Regarding `CC(=O)O[C@H]1CC[C@@]2(C)C(=CC[C@H]3[C@@H]4C[C@@H]5O[C@@]6(CC[C@@H](C)CN6)[C@@H](C)[C@@H]5[C@@]4(C)CC[C@@H]32)C1`, the IC12 in assay [5] is 15.7 µg/mL; in assay [6], 21 µg/mL; in assay [7], 30 µg/mL; in assay [8] it was 3 µg/mL.

Source of the values: ChEMBL document CHEMBL1158213, “Bioactive steroidal alkaloids from Solanum umbelliferum” (1996).
